Source: US10576151B2, “Ciclopirox for use in modulation of glucose homeostasis” (UNIVERSITY OF SOUTH CAROLINA, priority 2015, dated 2020)
“Also recorded” adds a separate entry of the source.

Tests used:
[1] = test system: wt mice receiving normal diet; assay: Fasting glucose in non-diabetic wild type mice on normal diet; type: in vivo, C57BI/6 mice; conditions: non-diabetic wt mice on normal diet with CPX (FIG. 5B, FIG. 7A)
Source text: In Vivo Analysis of Anti-Diabetic Effect of CPX. Mice were randomly grouped. A group of C57BI/6 mice 4-5 weeks old, were fed with either a solution of 10% sucrose and a diet containing 40% kcal as a high-fat diet (HFD; Open Source Diets (New Brunswick, N.J., USA) D12451, 40% calories/fat with free access to (10%) sweetened water (sucrose) or a control chow diet containing 10% of kcal as fat (low-fat diet) and drinking water with no added sucrose (control). Mice with a glucose concentration exceeding 180 mg/dL were considered diabetic, after 2 consecutive glucose measurements. The blood glucose levels were measured using an Accu-Check blood glucose monitor (Roche, Indianapolis, Ind., USA) using blood sample collected from the tail vein. […] Glucose levels of mice were measured by an Accu-Chek Active meter (ROCHE) with blood sample obtained from the tail. […] For insulin resistance test, mice were injected intraperitoneally at a dose of 0.75 units/kg with human insulin (0.75 U/kg body weight; Sigma) at different time points as indicated, as for glucose tolerance after insulin injection and blood glucose was measured as described. In order to test if the antidiabetic activity of CPX was elicited only in diabetic mice or in non-diabetic mice as well, plasma glucose levels were assessed in wt mice that were receiving normal diet in combination with CPX.

[2] = test system: insulin; assay: Western blot of insulin levels in islets in culture; type: cell-based, mouse
Method: Western Blotting. The mouse islets were treated with CPX 20 μM for 24 h and lysed in RIPA buffer [50 mM Tris, pH 7.2; 150 mM NaCl; 1% sodium deoxycholate; 0.1% SDS; 1% Triton-X 100; 10 mM NaF; 1 mM Na3VO4; protease inhibitor cocktail (1:1000, Sigma, St. Louis, Mo.)] and were subjected to immunoblot analysis by standard methods. Proteins were resolved on a 10% SDS-PAGE and transferred to a nitrocellulose membrane (Bio-Rad, Hercules, Calif.). Membranes were probed overnight with GADD153 (F-168), sc-575 from Santa Cruz Biotechnology (1:50); p21 (F-5), sc-6246 from Santa Cruz Biotechnology (1:200); actin, clone C4 MAB1501 from Millipore (Billerica, Mass., USA) (1:2000); BiP antibody (cat. no. 3183) from Cell Signaling (Danvers, Mass., USA) (1:1000); GRP94 antibody (H-212), sc-11402 from Santa Cruz Biotechnology (1:500); insulin rabbit polyclonal H-86, sc-9168 from Santa Cruz Biotechnology (1:500) antibodies followed by incubation with horseradish peroxidase-conjugated (HRP) anti-mouse (1:10000), goat anti-rabbit IgG (1:10000, Santa Cruz biotechnology Inc., Santa Cruz, Calif., USA) for 1 hr. After incubation with enhanced chemiluminescence reagents (Santa Cruz biotechnology Inc.), membranes were analyzed using an Image J software for Windows.
In order to understand better how CPX operates in β cells, it was tested to determine if it affected the efficiency by which insulin is produced following glucose stimulation. […] In view of the antidiabetic activity of CPX in vivo, the inhibition of insulin release appears contradictory. […]
While modulation of insulin release by CPX constitutes a challenging mechanism by which CPX may affect ER stress, how CPX regulates insulin expression remains obscure. […] To test this hypothesis, islets were exposed to iron citrate, alone or combined with CPX, and the levels were recorded of chaperones BiP, GRP94 and CHOP, as well as of insulin.

[3] = test system: p21; assay: p21 stimulation in islets; type: cell-based, mice; conditions: dependence on p53
Method: Western Blotting. The mouse islets were treated with CPX 20 μM for 24 h and lysed in RIPA buffer [50 mM Tris, pH 7.2; 150 mM NaCl; 1% sodium deoxycholate; 0.1% SDS; 1% Triton-X 100; 10 mM NaF; 1 mM Na3VO4; protease inhibitor cocktail (1:1000, Sigma, St. Louis, Mo.)] and were subjected to immunoblot analysis by standard methods. Proteins were resolved on a 10% SDS-PAGE and transferred to a nitrocellulose membrane (Bio-Rad, Hercules, Calif.). […] After incubation with enhanced chemiluminescence reagents (Santa Cruz biotechnology Inc.), membranes were analyzed using an Image J software for Windows. Islets from wt, p21-deficient, p53-deficient and CHOP-deficient mice were exposed to CPX at 20 μM for 24 h under increasing glucose amounts in the culture media, then they were let to recover for 48 h in normal glucose-containing media and their survival was assessed (FIG. 9). […]

For `Cc1cc(C2CCCCC2)n(O)c(=O)c1` [CPX, 6-cyclohexyl-1-hydroxy-4-methylpyridin-2(1H)-one], the “glucose levels (fasting)” value [1] was “no reduction of glucose levels was recorded; also recorded: not affected”, the “levels of intracellular insulin” value ([2]; islets in high glucose-containing media with CPX (FIG. 11B)) was “moderate suppression” and the insulin production ([2]; islets, iron citrate with concomitant CPX (FIG. 12A)) was “compromised the effects of iron citrate”. The “p21-stimulatory activity in the islets” value [3] was “p53-independent”.
